Measurements: patent publication US7169786B2, “Isoxazoline derivatives as anti-depressants” (priority 2001, dated 2007)

What was measured:
hα2A receptor = target: T1, hα2A receptor (Homo sapiens, UniProt P08913); assay: Radioligand binding experiment for hα2A receptor ([3H]-raulwolscine); conditions: membranes of CHO cells expressing human α2A receptor, [3H]raulwolscine 1 nM; for IC50: read-out: hα2A pIC50 (converted)
T1 construct: expressed in transfected cells
T1 sequence (P08913 1-465): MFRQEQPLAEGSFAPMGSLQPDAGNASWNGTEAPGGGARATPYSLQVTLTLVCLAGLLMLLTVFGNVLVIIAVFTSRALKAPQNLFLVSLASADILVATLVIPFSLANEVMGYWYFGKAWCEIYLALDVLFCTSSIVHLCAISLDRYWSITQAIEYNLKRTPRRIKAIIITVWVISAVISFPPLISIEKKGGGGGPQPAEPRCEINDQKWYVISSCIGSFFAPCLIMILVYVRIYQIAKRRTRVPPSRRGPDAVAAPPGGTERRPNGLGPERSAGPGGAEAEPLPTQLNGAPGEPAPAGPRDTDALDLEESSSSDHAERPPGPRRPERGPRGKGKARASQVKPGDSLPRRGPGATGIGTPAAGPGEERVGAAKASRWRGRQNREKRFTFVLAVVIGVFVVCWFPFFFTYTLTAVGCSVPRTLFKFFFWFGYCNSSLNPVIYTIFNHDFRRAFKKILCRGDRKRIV
Experimental: (§1) The interaction of the compounds of Formula (I) with hα2-receptors and h5-HT-transporters was assessed in in vitro radioligand binding experiments. In general, a low concentration of a radioligand with a high binding affinity for a particular receptor or transporter is incubated with a sample of a tissue preparation enriched in a particular receptor or transporter or with a preparation of cells expressing cloned human receptors in a buffered medium. During the incubation, the radioligand binds to the receptor or transporter. When equilibrium of binding is reached, the receptor bound radioactivity is separated from the non-bound radioactivity, and the receptor- or transporter-bound activity is counted. The interaction of the test compounds with the receptor is assessed in competition binding experiments. Various concentrations of the test compound are added to the incubation mixture containing the receptor- or transporter preparation and the radioligand. The test compound in proportion to its binding affinity and its concentration inhibits binding of the radioligand. The radioligand used for hα2A, hα2B and hα2C receptor binding was [^3H]-raulwolscine and for the h5-HT transporter was [^3H]paroxetine.
(§2) CHO cells, stabile transfected with human adrenergic-α2A-, -α2B or α2C receptor cDNA, were cultured in Dulbecco's Modified Eagle's Medium (DMEM)/Nutrient mixture Ham's F12 (ratio 1:1)(Gibco, Gent-Belgium) supplemented with 10% heat inactivated fetal calf serum (Life Technologies, Merelbeke-Belgium) and antibiotics (100 IU/ml penicillin G, 100 μg/ml streptomycin sulphate, 110 μg/ml pyruvic acid and 100 μg/ml L-glutamine). One day before collection, cells were induced with 5 mM sodiumbutyrate. Upon 80–90% of confluence, cells were scraped in phosphate buffered saline without Ca^2+ and Mg^2+ and collected by centrifugation at 1500×g for 10 min. The cells were homogenised in Tris-HCl 50 mM using an Ultraturrax homogenizer and centrifuged for 10 min at 23,500×g. The pellet was washed once by resuspension and rehomogenization and the final pellet was resuspended in Tris-HCl, divided in 1 ml aliquots and stored at −70° C.
(§3) Membranes were thawed and re-homogenized in incubation buffer (glycylglycine 25 mM, pH 8.0). […] Filters were rinsed extensively with ice-cold rinsing buffer (Tris-HCl 50 mM pH 7.4). Filter-bound radioactivity was determined by scintillation counting in a Topcount (Packard, Meriden, Conn.) and results were expressed as counts per minute (cpm). Non-specific binding was determined in the presence of 1 μM oxymetazoline for hα2A- and hα2B receptors and 1 μM spiroxatrine for hα2C receptors.
(§4) Data from assays in the presence of compound were calculated as a percentage of total binding measured in the absence of test compound. Inhibition curves, plotting percent of total binding versus the log value of the concentration of the test compound, were automatically generated, and sigmoidal inhibition curves were fitted using non-linear regression. The pIC50 values of test compounds were derived from individual curves.

hα2C receptor = target: T2, hα2C receptor (Homo sapiens, UniProt P18825); assay: Radioligand binding experiment for hα2C receptor ([3H]-raulwolscine); conditions: membranes of CHO cells expressing human α2C receptor, [3H]raulwolscine 1 nM; for IC50: read-out: hα2C pIC50 (converted)
T2 construct: expressed in transfected cells
T2 sequence (P18825 1-462): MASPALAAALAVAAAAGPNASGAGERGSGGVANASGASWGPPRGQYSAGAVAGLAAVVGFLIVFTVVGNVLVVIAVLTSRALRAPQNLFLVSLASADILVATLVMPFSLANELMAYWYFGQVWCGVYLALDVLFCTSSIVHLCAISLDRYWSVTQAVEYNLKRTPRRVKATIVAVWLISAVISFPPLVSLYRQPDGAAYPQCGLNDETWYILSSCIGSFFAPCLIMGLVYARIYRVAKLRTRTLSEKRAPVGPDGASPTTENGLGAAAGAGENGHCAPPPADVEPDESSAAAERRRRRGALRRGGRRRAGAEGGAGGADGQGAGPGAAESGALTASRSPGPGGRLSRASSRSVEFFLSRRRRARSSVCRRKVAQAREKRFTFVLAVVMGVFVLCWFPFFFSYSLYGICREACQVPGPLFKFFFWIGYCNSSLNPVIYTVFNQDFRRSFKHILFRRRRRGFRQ
Experimental: as §1, §2, §3, §4

h5-HT transporter = target: T3, h5-HT transporter (Homo sapiens, UniProt P31645); assay: Radioligand binding experiment for 5-HT transporter ([3H]paroxetine, human platelet membranes); conditions: human platelet membranes, [3H]paroxetine 0.5 nM; for IC50: read-out: 5HTT pIC50 (converted)
T3 construct: Human platelet membranes (Oceanix Biosciences Corporation, Hanover, Md., USA) were thawed; tissue Oceanix Biosciences Corporation, Hanover, Md., USA; host or cells: human platelet membranes
Experimental: as §1
Human platelet membranes (Oceanix Biosciences Corporation, Hanover, Md., USA) were thawed, diluted in buffer (Tris-HCl 50 mM, 120 mM NaCl and 5 mM KCl) and quickly (max 3 s) homogenised with an Ultraturrax homogenizer. […] Filters were rinsed extensively with ice-cold buffer and radioactivity on the filters was counted in a Topcount liquid scintillation counter (Packard, Meriden, Conn.). Data were expressed as cpm. Imipramine (at 1 μM final concentration) was used to determine the non-specific binding.
as §4

hα2B receptor = target: T4, hα2B receptor (Homo sapiens, UniProt P18089); assay: Radioligand binding experiment for hα2B receptor ([3H]-raulwolscine); conditions: membranes of CHO cells expressing human α2B receptor; [3H]raulwolscine 1 nM; read-out: hα2B pIC50 (converted)
T4 construct: expressed in transfected cells
T4 sequence (P18089 1-450): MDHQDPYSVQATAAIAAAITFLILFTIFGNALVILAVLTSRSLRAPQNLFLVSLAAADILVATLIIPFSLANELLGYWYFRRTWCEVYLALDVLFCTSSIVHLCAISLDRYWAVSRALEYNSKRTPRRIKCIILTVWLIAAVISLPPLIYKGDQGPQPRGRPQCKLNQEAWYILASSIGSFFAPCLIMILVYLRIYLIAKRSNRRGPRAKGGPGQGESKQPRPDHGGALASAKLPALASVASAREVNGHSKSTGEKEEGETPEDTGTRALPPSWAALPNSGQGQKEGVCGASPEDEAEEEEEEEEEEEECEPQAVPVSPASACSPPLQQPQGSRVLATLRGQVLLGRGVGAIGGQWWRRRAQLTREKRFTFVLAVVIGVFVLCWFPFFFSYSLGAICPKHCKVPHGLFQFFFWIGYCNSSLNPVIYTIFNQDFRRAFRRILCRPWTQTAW
Experimental: as §1, §2, §3, §4

T3 sequence (P31645 whole entry): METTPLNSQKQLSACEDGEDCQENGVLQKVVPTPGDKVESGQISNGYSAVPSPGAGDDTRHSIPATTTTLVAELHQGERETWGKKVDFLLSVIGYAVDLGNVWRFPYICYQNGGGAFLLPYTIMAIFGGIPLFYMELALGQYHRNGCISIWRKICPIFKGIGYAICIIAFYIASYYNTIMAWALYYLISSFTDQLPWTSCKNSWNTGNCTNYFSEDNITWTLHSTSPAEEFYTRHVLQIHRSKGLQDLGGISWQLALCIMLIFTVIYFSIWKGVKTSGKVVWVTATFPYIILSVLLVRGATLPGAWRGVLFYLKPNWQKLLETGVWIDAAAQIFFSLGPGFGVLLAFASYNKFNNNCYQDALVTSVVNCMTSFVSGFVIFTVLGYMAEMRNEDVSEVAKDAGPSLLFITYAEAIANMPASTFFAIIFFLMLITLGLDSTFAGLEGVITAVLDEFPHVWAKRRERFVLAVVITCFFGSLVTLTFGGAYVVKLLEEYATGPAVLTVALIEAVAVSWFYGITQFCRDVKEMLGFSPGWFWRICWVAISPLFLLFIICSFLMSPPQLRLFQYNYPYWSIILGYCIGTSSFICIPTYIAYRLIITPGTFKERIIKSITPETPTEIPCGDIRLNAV

Compound	IC50 (hα2A receptor) [nM]	IC50 (hα2C receptor) [nM]	IC50 (h5-HT transporter) [nM]	IC50 (hα2B receptor) [nM]	hα2A pIC50 (hα2A receptor)	hα2C pIC50 (hα2C receptor)	5HTT pIC50 (h5-HT transporter)
COCCOCOc1cc2c(cc1OC)C1=NOC(CN3CCN(C/C(C)=C/c4ccccc4)CC3)C1CO2 (single isomer, unassigned) [Compound 342]	8.51	0.162	17.4				
COc1cc2c(cc1OC)C1=NOC(CN3CCN(C/C=C(\C)c4ccccc4F)CC3)C1CO2 (single isomer, unassigned) [Compound 359]	7.94	3.47	44.7				
COc1cc2c(cc1OC)C1=NOC(CN3CCN(CC(C)=Cc4cc(F)ccc4F)CC3)C1CO2 (centres unmarked) [Compound 199]	1.2	1.66		1			
COc1ccc2c(c1)C1=NOC(CN3CCN(CC(C)=Cc4ccccc4)CC3)C1CO2 (centres unmarked) [Compound 348]	1.2	1.32	17.8				
COc1cc2c(cc1SC)OCC1C2=NOC1CN1CCN(CC(C)=Cc2ccccc2)CC1.O=C(O)C(F)(F)F (racemic) [Compound 350]					8.39	8.68	7.69
COc1cc2c(cc1OC)C1=NOC(CN3CCN(Cc4cccc(Br)c4)CC3)C1CO2 (centres unmarked) [Compound 90]	195		302				
COc1cc2c(cc1OC)C1=NOC(CN3CCN(C/C=C(\C)c4ccc(F)cc4)CC3)C1CO2 (single isomer, unassigned) [Compound 361]	12.6	3.09	4.17				
COc1cc2c(cc1OCCOC(C)=O)C1=NOC(CN3CCN(CC(C)=Cc4ccccc4)CC3)C1CO2 (centres unmarked) [Compound 332]	4.47	0.603	58.9				
COc1cc2c(cc1OC(C)=O)OCC1C2=NOC1CN1CCN(C/C=C(\C)c2ccccc2)CC1 (single isomer, unassigned) [Compound 358]	1.48	3.24	37.2				
COc1cc2c(cc1OC(C)=O)OCC1C2=NOC1CN1CCN(Cc2ccc3ccccc3c2)CC1 (centres unmarked) [Compound 355]	5.13	7.08	13.5				
COc1cc2c(cc1OC)C1=NOC(CN3CCN(CCC(=O)c4ccccc4)CC3)C1CO2 (centres unmarked) [Compound 309]	50.1	58.9	389				
COc1cc2c(cc1OS(C)(=O)=O)OCC1C2=NOC1CN1CCN(CC(C)=Cc2ccccc2)CC1 (single isomer, unassigned) [Compound 346]					8.65	8.91	8.37
COc1cc2c(cc1OC)C1=NOC(CN3CCN(C/C=C(\C)c4cccc(Cl)c4)CC3)C1CO2 (single isomer, unassigned) [Compound 366]	12.9	3.31	11.5				
COc1cc2c(cc1OCCN(C)C)OCC1C2=NOC1CN1CCN(C/C(C)=C/c2ccccc2)CC1 (single isomer, unassigned) [Compound 341]	3.63	1.23	2.19				
COc1cc2c(cc1OCC1CC1)OCC1C2=NOC1CN1CCN(C/C(C)=C/c2ccc(F)cc2)CC1 (single isomer, unassigned) [Compound 337]	20.9						
COc1cc2c(cc1OC)C1=NOC(CN3CCN(CC(C)=Cc4cccc5ccccc45)CC3)C1CO2 (centres unmarked) [Compound 157]	13.5	74.1		52.5			
COC(=O)Oc1cc2c(cc1OC)C1=NOC(CN3CCN(C/C(C)=C/c4ccccc4)CC3)C1CO2 (single isomer, unassigned) [Compound 343]	2.34	1.23	37.2				
COc1cc2c(cc1OC)C1=NOC(CN3CCN(C/C=C(\C)c4ccsc4)CC3)C1CO2 (single isomer, unassigned) [Compound 323]	6.17	9.55	15.1				
COc1cc2c(cc1OC)C1=NOC(CN3CCN(CC(C)=Cc4ccc(F)cc4)CC3)C1CO2 (centres unmarked) [Compound 196]	14.5	8.13		3.63			
COc1ccccc1C=C(C)CN1CCN(CC2ON=C3c4cc(OC)c(OC)cc4OCC32)CC1 (centres unmarked) [Compound 201]	4.37	4.57		3.24			
COc1cc2c(cc1OC)C1=NOC(CN3CCN(CCC(O)c4ccccc4)CC3)C1CO2 (centres unmarked) [Compound 310]	214	64.6	871				
COc1ccccc1C=CCN1CCN(CC2ON=C3c4cc(OC)c(OC)cc4OCC32)CC1 (centres unmarked) [Compound 41]	15.8	12.6		5.01			
COc1cc2c(cc1OC)C1=NOC(CN3CCN(CC(C)=Cc4cccc(F)c4)CC3)C1CO2 (centres unmarked) [Compound 195]	4.57	2.09		1.58			
C=CCOc1cc2c(cc1OC)C1=NOC(CN3CCN(CC(C)=Cc4ccccc4)CC3)C1CO2 (single isomer, unassigned) [Compound 344]					8.45	8.68	8.00
COc1cc2c(cc1OC(C)=O)OCC1C2=NOC1CN1CCN(C/C(C)=C/c2cccc(F)c2)CC1 (single isomer, unassigned) [Compound 334]	2.69	2.29					
COc1cc2c(cc1OC)C1=NOC(CN3CCN(Cc4cccn4C)CC3)C1CO2 (centres unmarked) [Compound 291]	851	1000	1000				
